# Laboratory results from US20260183274A1, “PDK1 REGULATORY COMPOUND AND COMPOSITION CONTAINING THE SAME” (PROVIBIO CO., LTD., priority 2024, published 2026).
# What was measured:
# [1] = system: T cells isolated from mouse spleens; assay: T cell proliferation inhibition (CFSE flow cytometry, anti-CD3/anti-CD28 stimulation); format: cell-based; details: mouse spleen T cells, 3 days; for inhibition at 0.01 µM / inhibition at 0.1 µM / inhibition at 1 µM / inhibition at 10 µM / inhibition at 30 µM / inhibition at 50 µM: Mus musculus, T-cell, 72 h, read-out: Proliferation inhibition rate (%)
# In short: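 Splenic T cells from 7-week-old C57BL/6 mice were MACS-isolated, CFSE-labelled, seeded at 2×10^5 cells/well and activated with anti-CD3/anti-CD28 (0.5 μg/mL each). Compound at 10 nM–50 μM (six levels, triplicate) was present for 3 days at 37 °C before flow cytometric readout of proliferation inhibition rate.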
# [2] = system: Human B Lymphocyte cell line, SU-DHL-8; assay: Relative cell viability CCK-8, SU-DHL-8; format: cell-based; details: for viability at 1 µM / viability at 10 µM / viability at 30 µM / viability at 50 µM: Homo sapiens, SU-DHL-8, 48 h; for viability at 1 µM: read-out: Relative cell viability (%), SU-DHL-8, 1 μM; for viability at 10 µM: read-out: Relative cell viability (%), SU-DHL-8, 10 μM; for viability at 30 µM: read-out: Relative cell viability (%), SU-DHL-8, 30 μM; for viability at 50 µM: read-out: Relative cell viability (%), SU-DHL-8, 50 μM
# Procedure: Human-derived B lymphoma cell line SU-DHL-8 (Cat. #CRL-2961) purchased from ATCC was cultured in RPMI-1640 medium containing 10% FBS, 100 U/mL penicillin, and 100 μg/mL streptomycin.
# The cell culture medium was then harvested, centrifuged at 1,300 rpm for 5 minutes, and the supernatant was removed. The cells were resuspended in the same medium and dispensed into a 96-well plate (Costar 96-well cell culture plate, Corning) at 90 μL per well, resulting in the conditions specified in Table 5.
# Then, 10 μL of CCK-8 was added to each well, and the plates were incubated again at 37° C. in a 5% CO2 incubator for 4 hours.
# In other words, when the survival rate of untreated cells (DMSO) is set at 100%, the relative cell survival rate in each group treated with the drug at different concentrations is indicated.
# [3] = 48 hours, untreated (DMSO) = 100%
# [4] = 1 μM, 48 hours, untreated (DMSO) = 100%
# [5] = 10 μM, 48 hours, untreated (DMSO) = 100%
# [6] = 30 μM, 48 hours, untreated (DMSO) = 100%
compound,measurement,setting,value
"Nc1ncccc1C(=O)NCCCCCCCCCCCCN1CCSCC1 [Compound 4, 2-Amino-N-(12-thio-morpholin-4-yl-dodecyl)-nicotinamide]",inhibition at 0.01 µM,[1]; compound 10 nM,2.7%
same,inhibition at 0.1 µM,[1]; compound 100 nM,100%
same,inhibition at 1 µM,[1]; compound 1 μM,100%
same,inhibition at 10 µM,[1]; compound 10 μM,100%
same,inhibition at 30 µM,[1]; compound 30 μM,100%
same,inhibition at 50 µM,[1]; compound 50 μM,100%
same,viability at 1 µM,[2]; [3],7.58%
same,viability at 10 µM,[2]; [3],5.49%
same,viability at 30 µM,[2]; [3],4.68%
same,viability at 50 µM,[2]; [3],4.45%
"CC(C)CN1CCN(CCCCCCCCCCCCC(=O)Nc2nc(N)c3[nH]cnc3n2)CC1 [Compound 6, 12-[4-(2-methylpropyl)piperazin-1-yl]dodecyl-N-(6-aminopurine-2-yl) carboxamide]",inhibition at 0.01 µM,[1]; compound 10 nM,-18.5%
same,inhibition at 0.1 µM,[1]; compound 100 nM,100%
same,inhibition at 1 µM,[1]; compound 1 μM,100%
same,inhibition at 10 µM,[1]; compound 10 μM,100%
same,inhibition at 30 µM,[1]; compound 30 μM,100%
same,inhibition at 50 µM,[1]; compound 50 μM,100%
same,viability at 1 µM,[2]; [3],7.83%
same,viability at 10 µM,[2]; [3],6.39%
same,viability at 30 µM,[2]; [3],4.66%
same,viability at 50 µM,[2]; [3],3.94%
"COC(=O)CN1CCN(CCCCCCCCCCCCC(=O)Nc2nc(N)c3[nH]cnc3n2)CC1 [Compound 7, 12-[4-(2-methoxy-2-oxoethyl)piperazin-1-yl]dodecyl-N-(6-aminopurine-2-yl) carboxamide]",inhibition at 0.01 µM,[1]; compound 10 nM,5.14%
same,inhibition at 0.1 µM,[1]; compound 100 nM,100%
same,inhibition at 1 µM,[1]; compound 1 μM,100%
same,inhibition at 10 µM,[1]; compound 10 μM,100%
same,inhibition at 30 µM,[1]; compound 30 μM,100%
same,inhibition at 50 µM,[1]; compound 50 μM,100%
same,viability at 1 µM,[2]; [3],5.17%
same,viability at 10 µM,[2]; [3],4.16%
same,viability at 30 µM,[2]; [3],3.48%
same,viability at 50 µM,[2]; [3],3.17%
"Nc1nc(NC(=O)CCCCCCCCCCCCN2CCNCC2)nc2nc[nH]c12 [Compound 8, 12-(piperazin-1-yl)dodecyl-N-(6-aminopurine-2-yl) carboxamide]",inhibition at 0.01 µM,[1]; compound 10 nM,4.55%
same,inhibition at 0.1 µM,[1]; compound 100 nM,32.5%
same,inhibition at 1 µM,[1]; compound 1 μM,100%
same,inhibition at 10 µM,[1]; compound 10 μM,100%
same,inhibition at 30 µM,[1]; compound 30 μM,100%
same,inhibition at 50 µM,[1]; compound 50 μM,100%
same,viability at 1 µM,[2]; [3],10.8%
same,viability at 10 µM,[2]; [3],6.49%
same,viability at 30 µM,[2]; [3],5.07%
same,viability at 50 µM,[2]; [3],4.49%
"Nc1nc(NC(=O)CCCCCCCCCCCCN2CCC(O)CC2)nc2nc[nH]c12 [Compound 9, 12-(4-hydroxypiperidin-1-yl)dodecyl-N-(6-aminopurine-2-yl) carboxamide]",inhibition at 1 µM,[1]; compound 1 μM,100%
same,inhibition at 10 µM,[1]; compound 10 μM,100%
same,inhibition at 30 µM,[1]; compound 30 μM,100%
same,inhibition at 50 µM,[1]; compound 50 μM,100%
same,Proliferation inhibition rate (%),"[1]; compound 10 nM, listed as GO83, 0.01 µM",38.33%
same,viability at 1 µM,[2]; [3],5.32%
same,viability at 10 µM,[2]; [3],4.19%
same,viability at 30 µM,[2]; [3],3.36%
same,viability at 50 µM,[2]; [3],3.14%
"CN1CCN(C(=O)OC(C)(C)C)CC1CCCCCCCCNC(=O)c1cccnc1N (stereo not drawn) [Compound 12, tert-Butyl 3-(8-(2-aminonicotinamido)octyl)-4-methylpiperazine-1-carboxylate]",viability at 1 µM,[2]; [3],7.6%
same,viability at 10 µM,[2]; [3],3.79%
same,viability at 30 µM,[2]; [3],1.64%
same,viability at 50 µM,[2]; [3],1.13%
"Nc1ncccc1C(=O)NCCCCCCCCCCCCN1CCCCC1 [Compound 18, 2-amino-N-(12-(piperidin-1-yl)dodecyl)nicotinamide]",inhibition at 0.01 µM,[1]; compound 10 nM,1.87%
same,inhibition at 0.1 µM,[1]; compound 100 nM,76.1%
same,inhibition at 1 µM,[1]; compound 1 μM,100%
same,inhibition at 10 µM,[1]; compound 10 μM,100%
same,inhibition at 30 µM,[1]; compound 30 μM,100%
same,inhibition at 50 µM,[1]; compound 50 μM,100%
same,viability at 1 µM,[2]; [3],5.28%
same,viability at 10 µM,[2]; [3],4.5%
same,viability at 30 µM,[2]; [3],4.09%
same,viability at 50 µM,[2]; [3],3.44%
"CN(C)C1CCN(CCCCCCCCCCCCNC(=O)c2cccnc2N)C1 (stereo not drawn) [Compound 19, 2-Amino-N-(12-(3-(dimethylamino)pyrrolidin-1-yl)dodecyl)nicotinamide]",inhibition at 0.01 µM,[1]; compound 10 nM,-14.4%
same,inhibition at 0.1 µM,[1]; compound 100 nM,100%
same,inhibition at 1 µM,[1]; compound 1 μM,100%
same,inhibition at 10 µM,[1]; compound 10 μM,100%
same,inhibition at 30 µM,[1]; compound 30 μM,100%
same,inhibition at 50 µM,[1]; compound 50 μM,100%
same,viability at 1 µM,[2]; [3],8.51%
same,viability at 10 µM,[2]; [3],7.51%
same,viability at 30 µM,[2]; [3],5.98%
same,viability at 50 µM,[2]; [3],5.08%
"Nc1ncccc1C(=O)NCCCCCCCCCCCCN1CCCC1 [Compound 20, 2-Amino-N-(12-(pyrrolidin-1-yl)dodecyl)nicotinamide]",inhibition at 0.01 µM,[1]; compound 10 nM,3.46%
same,inhibition at 0.1 µM,[1]; compound 100 nM,100%
same,inhibition at 1 µM,[1]; compound 1 μM,100%
same,inhibition at 10 µM,[1]; compound 10 μM,100%
same,inhibition at 30 µM,[1]; compound 30 μM,100%
same,inhibition at 50 µM,[1]; compound 50 μM,100%
same,viability at 1 µM,[2]; [3],7.74%
same,viability at 10 µM,[2]; [3],5.34%
same,viability at 30 µM,[2]; [3],4.89%
same,viability at 50 µM,[2]; [3],3.68%
"CC1CN(CCCCCCCCCCCCNC(=O)c2cccnc2N)CC(C)O1 (stereo not drawn) [Compound 21, 2-Amino-N-(12-(2,6-dimethylmorpholino)dodecyl) nicotinamide]",Proliferation inhibition rate (%),[1]; compound 10 nM,−13.87%
same,Proliferation inhibition rate (%),[1]; compound 100 nM,100.00%
same,Proliferation inhibition rate (%),[1]; compound 1 μM,100.00%
same,Proliferation inhibition rate (%),[1]; compound 10 μM,100.00%
same,Proliferation inhibition rate (%),[1]; compound 30 μM,100.00%
same,Proliferation inhibition rate (%),[1]; compound 50 μM,100.00%
same,"Relative cell viability (%), SU-DHL-8",[2]; [4],9.64%
same,"Relative cell viability (%), SU-DHL-8",[2]; [5],7.68%
same,"Relative cell viability (%), SU-DHL-8",[2]; [6],3.70%
"CC1(C)CCN(CCCCCCCCCCCCNC(=O)c2cccnc2N)C1 [Compound 22, 2-Amino-N-(12-(3,3-dimethylpyrrolidin-1-yl)dodecyl) nicotinamide]",Proliferation inhibition rate (%),[1]; compound 10 nM,−0.80%
same,Proliferation inhibition rate (%),[1]; compound 100 nM,100.00%
same,Proliferation inhibition rate (%),[1]; compound 1 μM,100.00%
same,Proliferation inhibition rate (%),[1]; compound 10 μM,100.00%
same,Proliferation inhibition rate (%),[1]; compound 30 μM,100.00%
same,Proliferation inhibition rate (%),[1]; compound 50 μM,100.00%
same,"Relative cell viability (%), SU-DHL-8",[2]; [4],6.46%
same,"Relative cell viability (%), SU-DHL-8",[2]; [5],2.85%
same,"Relative cell viability (%), SU-DHL-8",[2]; [6],2.45%
same,"Relative cell viability (%), SU-DHL-8","[2]; 50 μM, 48 hours, untreated (DMSO) = 100%",1.67%
"Nc1ncccc1C(=O)NCCCCCCCCCCF [Compound 68, 2-Amino-N-(10-fluoro-decyl)-nicotinamide]",viability at 1 µM,[2]; [3],16.1%
same,viability at 10 µM,[2]; [3],15.3%
same,"Relative cell viability (%), SU-DHL-8","[2]; human, 48 h, 30 µM",−2.90%
same,"Relative cell viability (%), SU-DHL-8","[2]; human, 48 h, 50 µM",−5.64%
"Nc1ncccc1C(=O)NCCCCCCCCCCCF [Compound 70, 2-Amino-N-(11-fluoro-undecyl)-nicotinamide]",viability at 1 µM,[2]; [3],5.01%
same,viability at 10 µM,[2]; [3],4.94%
same,viability at 30 µM,[2]; [3],1.45%
same,"Relative cell viability (%), SU-DHL-8","[2]; human, 48 h, 50 µM",−0.57%
"Cl.Nc1ncccc1C(=O)NCCCCCCCCCCCF [Compound 71, 3-(11-fluoro-undecylcarbamoyl)-pyridin-2-yl-ammonium chloride]",viability at 50 µM,[2]; [3],0.75%
same,"Relative cell viability (%), SU-DHL-8","[2]; human, 48 h, 1 µM",5.57%
same,"Relative cell viability (%), SU-DHL-8","[2]; human, 48 h, 10 µM",4.05%
same,"Relative cell viability (%), SU-DHL-8","[2]; human, 48 h, 30 µM",2.04%
"CN1CCN(CCCCCCCCCCCCNC(=O)c2ccccc2Oc2ccccc2)CC1 [Compound 214, N-(12-(4-methylpiperazin-1-yl)dodecyl)-2-phenoxybenzamide]",inhibition at 0.01 µM,[1]; compound 10 nM,2.32%
same,inhibition at 0.1 µM,[1]; compound 100 nM,12.2%
same,inhibition at 1 µM,[1]; compound 1 μM,17.4%
same,inhibition at 10 µM,[1]; compound 10 μM,100%
same,inhibition at 30 µM,[1]; compound 30 μM,100%
same,inhibition at 50 µM,[1]; compound 50 μM,100%
"CCOc1cc(C(C)(C)C)ccc1C(=O)NCCCCCCCCCCCCN1CCN(C)CC1 [Compound 216, 4-(tert-butyl)-2-ethoxy-N-(12-(4-methylpiperazin-1-yl)dodecyl)benzamide]",inhibition at 0.01 µM,[1]; compound 10 nM,2.03%
same,inhibition at 0.1 µM,[1]; compound 100 nM,2.32%
same,inhibition at 1 µM,[1]; compound 1 μM,13%
same,inhibition at 10 µM,[1]; compound 10 μM,100%
same,inhibition at 30 µM,[1]; compound 30 μM,100%
same,inhibition at 50 µM,[1]; compound 50 μM,100%
"COc1cccc(OC)c1C(=O)NCCCCCCCCCCCCN1CCN(C)CC1 [Compound 218, 2,6-Dimethoxy-N-(12-(4-methylpiperazin-1-yl)dodecyl)benzamide]",inhibition at 0.01 µM,[1]; compound 10 nM,1.31%
same,inhibition at 0.1 µM,[1]; compound 100 nM,2.74%
same,inhibition at 1 µM,[1]; compound 1 μM,12.4%
same,inhibition at 10 µM,[1]; compound 10 μM,100%
same,inhibition at 30 µM,[1]; compound 30 μM,100%
same,inhibition at 50 µM,[1]; compound 50 μM,100%
"Cc1c(Cl)cccc1C(=O)NCCCCCCCCCCCCN1CCN(C)CC1 [Compound 219, 3-Chloro-2-methyl-N-(12-(4-methylpiperazin-1-yl)dodecyl)benzamide]",inhibition at 0.01 µM,[1]; compound 10 nM,-5.37%
same,inhibition at 0.1 µM,[1]; compound 100 nM,2.18%
same,inhibition at 1 µM,[1]; compound 1 μM,3.48%
same,inhibition at 10 µM,[1]; compound 10 μM,66.5%
same,inhibition at 30 µM,[1]; compound 30 μM,100%
same,inhibition at 50 µM,[1]; compound 50 μM,100%
